Experimental data reported in patent US20120107417A1, “Effective Antitumor Treatments” (PHARMA MAR, S.A., priority 2000, published 2012).
Read-outs that look alike come from different tables or passages of the source.

How the values were obtained:
[1] = tested on: liver; settings: rat
Description: In the light of the antiinflammatory activity of dex, we investigated its effect on liver damage induced by ET-743 in the rat. Female Wistar rats received a single iv dose of ET-743 (40 μg/kg). Some rats were pretreated with a single oral dose of dex either at 1, 5, 10 or 20 mg/kg 24 h prior to ET-743 treatment. Liver pathology and plasma concentrations of alkaline phophatase (ALP), aspartate aminotransferase (GOT) and total bilirubin (TB) were assessed up to 3 days post ET-743 administration. Conventional histological sections of the livers were examined by light microscopy.

[2] = tested on: ovarian 1 A 9 tumor; assay: ET-743/DDP against ovarian 1A9 tumor in vivo; design: species or system human; settings: single agents
From the text: The ovarian 1 A 9 tumor that is normally resistant to both ET-743 and DDP as single agents, in combination produced a tumor growth inhibition greater than 50%.

[3] = tested on: human ovarian carcinoma HOC8; assay: ET-743/DDP against orthotopically transplanted HOC8; format: in vivo; settings: HOC8 orthotopic, peritoneal nodules with ascites; single agents
[4] = tested on: sc transplanted TE671; assay: ET-743/DDP against sc transplanted TE671; format: in vivo, human; settings: single drugs at MTD or combination
[5] = tested on: HS-18 cells; assay: Cell cycle analysis (propidium iodide, FACS), HS-18; format: cell-based, human
Description: (§1) Exponentially growth cells were treated with or without drugs for several hours. Cells were then collected and fixed with ice-cold 70% methanol. DNA was stained with propidium iodide as described previously. Ten thousand stained cells were analyzed on a Becton Dickinson fluorescence-activated cell sorter (FACS).

[6] = tested on: HS-18; assay: SRB cytotoxicity assay and Chou-Talalay combination index, HS-18; format: cell-based, human; settings: Homo sapiens, 72 h; read-out: IC50 for human soft tissue sarcoma cells, HS-18
Description: (§2) Soft tissue sarcoma cell lines, HT-1080 and HS-18 were maintained as monolayer cultures in RP<I-1640 containing 10% fetal bovine serum.
(§3) Cytotoxicity to drugs was determined by SRB cytotoxicity assay carried out in 96-well microtiter plates as described. Cells were plated in duplicate wells (5000 cells/well) and exposed to drugs at different concentrations. Cells were fixed with 50% TCA solution for 1 h and 0.4% SRB (Sigma) was added to each well. After a 30 min incubation, the plate were washed with 1% acetic acid and read at 570 nm on a Biowhitaker microplate reader 2001. The wells with cells containing no drugs and with medium plus drugs but no cells were used as positive and negative controls, respectively.
(§4) Cells were seeded into 96-well plates, as described previously. Cells were treated with seven different concentrations of the single drugs or combinations mixture at 1:100 (ET-743: the other drugs) molar ratio. After 72 h exposure, growth inhibition was measured using the SRB assay.
(§5) Using the same experimental setup described above, we exposed cells to three different concentrations of drugs which represents the IC25, IC50, IC75 of ET-743, DXR, TMTX and paclitaxel, respectively. After 24 hours pre-treatment with ET743 or the combination drug, the second drugs were added to the respective wells for 48 h. Growth inhibition was determined using the SRB assay.)
(§6) The CI was calculated by the Chou-Talalay equation, which takes into account both potency (Dm or IC50) and the shape of the dose effect curve (the m value). The general equation for the classic isobologram (CI=1) is given by:
(§7) CI=(D)1/(Dx)1+(D)2/(Dx)2 (A)

[7] = tested on: HT-1080 cells; assay: Cell cycle analysis (propidium iodide, FACS), HT-1080; format: cell-based, human
Description: as §1

[8] = tested on: HT-1080; assay: SRB cytotoxicity assay and Chou-Talalay combination index, HT-1080; format: cell-based, human; settings: Homo sapiens, HT-1080, 72 h; read-out: IC50 for human soft tissue sarcoma cells, HT-1080
Description: as §2, §3, §4, §5, §6, §7

[9] = 24 h after treatment with approximate IC50 dose
[10] = 72 h after treatment with approximate IC50 dose

C[C@@H]1C[C@H]2[C@@H]3CCC4=CC(=O)C=C[C@]4(C)[C@@]3(F)[C@@H](O)C[C@]2(C)[C@@]1(O)C(=O)CO [dex, dexamethasone]
protection against ET-743 liver damage ([1]; dex 1 mg/kg single oral dose 24 h prior to ET-743): little protection
protection against ET-743 liver damage ([1]; dex 5 mg/kg single oral dose 24 h prior to ET-743): moderately protective
effect on ET-743-induced histopathological changes and elevation of plasma ALP, GOT and TB ([1]; dex 10 mg/kg single oral dose 24 h prior to ET-743 40 μg/kg iv): totally abrogated
effect on ET-743-induced histopathological changes and elevation of plasma ALP, GOT and TB ([1]; dex 20 mg/kg single oral dose 24 h prior to ET-743 40 μg/kg iv): totally abrogated

N.N.[Cl][Pt][Cl] [DDP, cisplatin]
sensitivity of tumor to single agent [2]: resistant
sensitivity of tumor to single agent [3]: partially sensitive
antitumor effect in words [4]: partially sensitive

CC(=O)O[C@H]1C(=O)[C@@]2(C)[C@H]([C@H](OC(=O)c3ccccc3)[C@]3(O)C[C@H](OC(=O)[C@H](O)[C@@H](NC(=O)c4ccccc4)c4ccccc4)C(C)=C1C3(C)C)[C@]1(OC(C)=O)CO[C@@H]1C[C@@H]2O [Paclitaxel]
% G1 [5, 9]: 32.8%
% G2-M [5, 9]: 15.5%
% S phase [5, 9]: 52.5%
% G1 [5, 10]: 23.5%
% G2-M [5, 10]: 26.2%
% S phase [5, 10]: 58.7%
IC50 [6]: 10 nM
% G1 [7, 9]: 45.4%
% G2-M [7, 9]: 17.3%
% S phase [7, 9]: 37.3%
% G1 [7, 10]: 86.0%
% G2-M [7, 10]: 5.0%
% S phase [7, 10]: 9.0%
IC50 [8]: 1.3 nM
